Results from patent US10710978B2, “STK4 inhibitors for treatment of hematologic malignancies” (Dana-Farber Cancer Institute, Inc., priority 2015, dated 2020).
Where two headings read alike, the source gives them in different places.

Tests used:
Assay in all cases: KiNativ assay
Format in all cases: binding
SMG1 = SMG1 (Homo sapiens (Human), UniProt Q96Q15); conditions: H929 live cell
Experimental: (§1) Biochemical IC50s of the compounds of the present disclosure against various kinases were measured in a KiNativ assay. Compounds were screened in duplicate at 10 μM in H929 live cell. IC50 was measured via Mass spectroscopy (MS).

PKN1 = PKN1 (Homo sapiens (Human), UniProt Q16512); conditions: H929 live cell
Chain of PKN1 (Q16512 whole entry): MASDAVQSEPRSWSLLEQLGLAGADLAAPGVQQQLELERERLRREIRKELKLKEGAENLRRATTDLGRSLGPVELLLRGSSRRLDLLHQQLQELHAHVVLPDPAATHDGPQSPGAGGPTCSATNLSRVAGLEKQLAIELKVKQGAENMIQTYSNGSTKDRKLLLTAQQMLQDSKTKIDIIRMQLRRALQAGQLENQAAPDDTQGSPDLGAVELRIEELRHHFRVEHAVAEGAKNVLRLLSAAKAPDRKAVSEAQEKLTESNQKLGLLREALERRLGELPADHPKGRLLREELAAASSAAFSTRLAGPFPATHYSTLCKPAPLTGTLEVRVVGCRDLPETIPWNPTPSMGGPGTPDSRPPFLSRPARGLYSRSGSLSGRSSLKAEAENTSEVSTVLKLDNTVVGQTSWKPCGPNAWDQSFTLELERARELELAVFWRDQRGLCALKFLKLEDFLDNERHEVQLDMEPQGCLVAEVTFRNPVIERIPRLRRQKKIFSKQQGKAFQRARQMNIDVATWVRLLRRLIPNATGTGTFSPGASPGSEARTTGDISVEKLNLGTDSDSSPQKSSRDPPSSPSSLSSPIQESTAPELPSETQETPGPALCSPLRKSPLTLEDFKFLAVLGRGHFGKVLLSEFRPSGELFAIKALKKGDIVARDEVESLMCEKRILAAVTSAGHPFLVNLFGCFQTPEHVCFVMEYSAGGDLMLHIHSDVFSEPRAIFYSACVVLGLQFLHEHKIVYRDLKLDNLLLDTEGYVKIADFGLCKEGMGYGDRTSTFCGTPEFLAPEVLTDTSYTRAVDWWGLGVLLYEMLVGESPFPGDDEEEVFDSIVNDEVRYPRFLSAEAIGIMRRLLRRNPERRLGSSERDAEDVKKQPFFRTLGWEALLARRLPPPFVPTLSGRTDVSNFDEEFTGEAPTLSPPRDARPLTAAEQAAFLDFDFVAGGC
Experimental: as §1

RSK1 domain1 = RSK1 domain1 (Homo sapiens (Human), UniProt Q15418); conditions: H929 live cell
Experimental: as §1

STLK6 = STLK6 (Homo sapiens (Human), UniProt Q9C0K7); conditions: H929 live cell
Experimental: as §1

CK1g2 = CK1g2 (Homo sapiens (Human), UniProt P78368); conditions: H929 live cell
Experimental: as §1

p38a = p38a (Homo sapiens (Human), UniProt Q16539); conditions: H929 live cell, read-out: % inhibition (range)
Summary of the method: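 In duplicate, compounds at 10 μM were screened against kinases in H929 live cells using KiNativ, with MS as the detection method for IC50.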

MAPKAPK2, MAPKAPK3 = conditions: H929 live cell; for % inhibition (range): 10 μM
Experimental: as §1

CK1a = CK1a (Homo sapiens (Human), UniProt P48729); conditions: H929 live cell
Chain of CK1a (P48729 whole entry): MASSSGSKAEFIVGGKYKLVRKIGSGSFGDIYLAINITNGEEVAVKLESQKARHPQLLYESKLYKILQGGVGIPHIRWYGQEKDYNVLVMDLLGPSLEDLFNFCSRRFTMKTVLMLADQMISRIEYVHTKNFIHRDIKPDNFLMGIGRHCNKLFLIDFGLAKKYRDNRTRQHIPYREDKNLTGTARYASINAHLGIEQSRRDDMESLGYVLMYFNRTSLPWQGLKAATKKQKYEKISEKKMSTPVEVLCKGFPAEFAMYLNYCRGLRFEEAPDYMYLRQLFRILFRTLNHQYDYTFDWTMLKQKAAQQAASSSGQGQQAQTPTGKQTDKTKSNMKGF
Experimental: as §1

RSK2 domain2 = RSK2 domain2 (Homo sapiens (Human), UniProt P51812); conditions: H929 live cell
Experimental: as §1

KSR1, KSR2 = conditions: H929 live cell; for % inhibition (range): 10 μM
Experimental: as §1

Erk2 = Erk2 (Homo sapiens (Human), UniProt P28482); conditions: H929 live cell
Chain of Erk2 (P28482 whole entry): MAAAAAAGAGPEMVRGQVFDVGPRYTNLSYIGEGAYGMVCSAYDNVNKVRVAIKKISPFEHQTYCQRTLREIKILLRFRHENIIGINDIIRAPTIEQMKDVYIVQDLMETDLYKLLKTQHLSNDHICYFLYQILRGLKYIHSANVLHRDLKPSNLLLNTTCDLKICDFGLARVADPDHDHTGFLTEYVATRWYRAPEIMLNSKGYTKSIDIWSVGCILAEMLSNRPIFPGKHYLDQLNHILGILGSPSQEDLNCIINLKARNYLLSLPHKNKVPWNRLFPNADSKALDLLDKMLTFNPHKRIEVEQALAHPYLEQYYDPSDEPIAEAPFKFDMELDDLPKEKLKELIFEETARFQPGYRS
Experimental: as §1

AMPKa1, AMPKa2 = conditions: H929 live cell; for % inhibition (range): 10 μM
Experimental: as §1

LOK = LOK (Homo sapiens (Human), UniProt O94804); conditions: H929 live cell
Experimental: as §1

MAP2K3 = MAP2K3 (Homo sapiens (Human), UniProt P46734); conditions: H929 live cell
Chain of MAP2K3 (P46734 whole entry): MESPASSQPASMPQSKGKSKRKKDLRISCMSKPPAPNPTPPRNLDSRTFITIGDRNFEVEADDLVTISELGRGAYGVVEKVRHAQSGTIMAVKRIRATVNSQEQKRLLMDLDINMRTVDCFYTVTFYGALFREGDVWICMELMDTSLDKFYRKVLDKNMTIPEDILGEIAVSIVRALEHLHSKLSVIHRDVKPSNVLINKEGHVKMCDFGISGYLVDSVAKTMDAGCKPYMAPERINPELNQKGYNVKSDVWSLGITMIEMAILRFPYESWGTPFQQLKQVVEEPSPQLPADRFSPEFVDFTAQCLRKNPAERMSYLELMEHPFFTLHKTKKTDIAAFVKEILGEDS
Experimental: as §1

TYK2 domain2 = TYK2 domain2 (Homo sapiens (Human), UniProt P29597); conditions: H929 live cell
Experimental: as §1

PKD2 = PKD2 (Homo sapiens (Human), UniProt Q9BZL6); conditions: H929 live cell
Chain of PKD2 (Q9BZL6 whole entry): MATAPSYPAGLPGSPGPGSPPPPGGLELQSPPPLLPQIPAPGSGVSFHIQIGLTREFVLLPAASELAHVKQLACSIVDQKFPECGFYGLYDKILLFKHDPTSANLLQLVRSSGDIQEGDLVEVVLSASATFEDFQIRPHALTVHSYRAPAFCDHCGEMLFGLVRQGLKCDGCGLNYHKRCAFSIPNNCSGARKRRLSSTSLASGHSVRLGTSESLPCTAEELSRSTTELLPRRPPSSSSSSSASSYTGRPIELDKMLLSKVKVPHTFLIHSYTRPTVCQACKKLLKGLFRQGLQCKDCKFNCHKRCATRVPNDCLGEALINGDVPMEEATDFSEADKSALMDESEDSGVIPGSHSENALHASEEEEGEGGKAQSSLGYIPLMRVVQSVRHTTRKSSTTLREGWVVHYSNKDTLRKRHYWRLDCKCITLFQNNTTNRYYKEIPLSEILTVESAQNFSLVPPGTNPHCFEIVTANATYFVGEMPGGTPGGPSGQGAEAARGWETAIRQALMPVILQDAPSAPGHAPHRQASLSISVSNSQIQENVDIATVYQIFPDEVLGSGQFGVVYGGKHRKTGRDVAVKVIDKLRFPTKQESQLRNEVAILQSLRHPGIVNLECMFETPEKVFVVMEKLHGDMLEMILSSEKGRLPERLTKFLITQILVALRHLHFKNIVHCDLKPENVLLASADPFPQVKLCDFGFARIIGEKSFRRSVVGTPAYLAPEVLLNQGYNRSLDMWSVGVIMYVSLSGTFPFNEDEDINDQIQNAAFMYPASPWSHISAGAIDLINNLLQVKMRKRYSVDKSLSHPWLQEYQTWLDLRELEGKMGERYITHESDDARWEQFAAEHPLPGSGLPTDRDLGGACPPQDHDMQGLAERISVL
Experimental: as §1

PI4KA, PI4KAP2 = conditions: H929 live cell; for % inhibition (range): 10 μM
Experimental: as §1

CSK = CSK (Homo sapiens (Human), UniProt P41240); conditions: H929 live cell
Experimental: as §1

AKT1 = AKT1 (Homo sapiens (Human), UniProt P31749); conditions: H929 live cell
Experimental: as §1

JAK3 domain2 = JAK3 domain2 (Homo sapiens (Human), UniProt P52333); conditions: H929 live cell
Experimental: as §1

TBK1 = TBK1 (Homo sapiens (Human), UniProt Q9UHD2); conditions: H929 live cell
Experimental: as §1

PIP5K3 = PIP5K3 (Homo sapiens (Human), UniProt Q9Y2I7); conditions: H929 live cell
Chain of PIP5K3 (Q9Y2I7 whole entry): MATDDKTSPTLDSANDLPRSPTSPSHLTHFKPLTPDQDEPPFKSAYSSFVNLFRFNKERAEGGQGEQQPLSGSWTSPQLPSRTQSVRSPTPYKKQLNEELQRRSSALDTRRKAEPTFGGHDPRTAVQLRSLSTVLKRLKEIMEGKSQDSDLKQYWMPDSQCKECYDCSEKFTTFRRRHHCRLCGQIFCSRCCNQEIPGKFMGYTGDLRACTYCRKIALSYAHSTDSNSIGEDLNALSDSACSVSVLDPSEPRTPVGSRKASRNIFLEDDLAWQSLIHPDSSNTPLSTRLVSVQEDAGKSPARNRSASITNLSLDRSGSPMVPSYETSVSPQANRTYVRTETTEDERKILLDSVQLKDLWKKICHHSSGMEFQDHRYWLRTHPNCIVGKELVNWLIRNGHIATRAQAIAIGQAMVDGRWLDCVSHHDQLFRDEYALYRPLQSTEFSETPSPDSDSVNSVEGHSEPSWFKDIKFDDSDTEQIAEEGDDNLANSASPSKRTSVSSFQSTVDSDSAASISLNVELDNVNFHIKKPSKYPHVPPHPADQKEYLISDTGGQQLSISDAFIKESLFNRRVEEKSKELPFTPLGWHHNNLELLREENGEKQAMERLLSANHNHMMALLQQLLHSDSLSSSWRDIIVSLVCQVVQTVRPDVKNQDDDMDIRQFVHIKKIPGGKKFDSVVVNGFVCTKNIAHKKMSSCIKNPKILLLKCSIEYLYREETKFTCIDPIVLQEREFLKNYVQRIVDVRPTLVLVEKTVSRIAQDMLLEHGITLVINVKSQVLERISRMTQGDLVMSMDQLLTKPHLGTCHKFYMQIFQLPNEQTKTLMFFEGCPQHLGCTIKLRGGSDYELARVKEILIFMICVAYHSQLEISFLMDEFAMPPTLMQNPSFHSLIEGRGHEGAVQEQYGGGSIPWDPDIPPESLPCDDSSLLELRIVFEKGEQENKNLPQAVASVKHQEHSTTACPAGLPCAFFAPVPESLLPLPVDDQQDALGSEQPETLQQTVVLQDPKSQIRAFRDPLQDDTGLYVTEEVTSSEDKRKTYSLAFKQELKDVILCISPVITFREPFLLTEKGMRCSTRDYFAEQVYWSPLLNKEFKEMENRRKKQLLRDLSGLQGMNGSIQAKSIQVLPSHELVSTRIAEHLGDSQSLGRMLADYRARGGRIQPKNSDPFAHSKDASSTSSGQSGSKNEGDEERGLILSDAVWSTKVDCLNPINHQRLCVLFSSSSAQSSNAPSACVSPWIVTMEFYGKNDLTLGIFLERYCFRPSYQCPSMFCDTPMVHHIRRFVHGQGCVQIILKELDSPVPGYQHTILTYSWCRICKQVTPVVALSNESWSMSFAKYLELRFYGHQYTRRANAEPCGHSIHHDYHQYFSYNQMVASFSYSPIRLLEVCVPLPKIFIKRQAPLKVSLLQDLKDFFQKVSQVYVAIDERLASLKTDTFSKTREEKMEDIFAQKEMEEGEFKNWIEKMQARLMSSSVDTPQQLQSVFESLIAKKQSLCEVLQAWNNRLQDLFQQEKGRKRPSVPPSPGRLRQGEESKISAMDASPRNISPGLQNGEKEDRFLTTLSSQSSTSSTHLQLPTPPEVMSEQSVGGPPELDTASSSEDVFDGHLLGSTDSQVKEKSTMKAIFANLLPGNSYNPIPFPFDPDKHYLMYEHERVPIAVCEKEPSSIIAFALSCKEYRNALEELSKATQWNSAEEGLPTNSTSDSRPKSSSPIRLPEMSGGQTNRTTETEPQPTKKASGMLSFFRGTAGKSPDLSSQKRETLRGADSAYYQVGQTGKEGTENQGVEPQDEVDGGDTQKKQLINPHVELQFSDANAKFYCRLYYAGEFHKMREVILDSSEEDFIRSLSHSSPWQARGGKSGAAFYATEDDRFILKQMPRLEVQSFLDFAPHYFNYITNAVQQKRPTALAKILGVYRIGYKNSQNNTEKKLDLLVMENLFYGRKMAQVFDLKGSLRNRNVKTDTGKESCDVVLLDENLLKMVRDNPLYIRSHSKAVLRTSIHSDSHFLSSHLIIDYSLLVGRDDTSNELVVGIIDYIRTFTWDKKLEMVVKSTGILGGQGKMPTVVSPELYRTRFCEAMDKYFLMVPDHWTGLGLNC
Experimental: as §1

MAP3K4 = MAP3K4 (Homo sapiens (Human), UniProt Q9Y6R4); conditions: H929 live cell
Experimental: as §1

PLK1 = PLK1 (Homo sapiens (Human), UniProt P53350); conditions: H929 live cell
Experimental: as §1

Structure (SMILES): Nc1ncc(-c2cccc([N+](=O)[O-])c2F)cc1-c1ccc2c(c1)CCNC2=O [Compound I-9, 6-(2-amino-5-(2-fluoro-3-nitrophenyl)pyridin-3-yl)-3,4-dihydroisoquinolin-1(2H)-one]
- inhibition at 10 µM (SMG1; read-out: % inhibition (range)): > 90%
- inhibition at 10 µM (SMG1; read-out: inhibition (10 μM)): 94.7%
- inhibition at 10 µM (PKN1; read-out: % inhibition (range)): 50 to 75%
- inhibition at 10 µM (PKN1; read-out: inhibition (10 μM)): 56.9%
- inhibition at 10 µM (RSK1 domain1; read-out: % inhibition (range)): 0%
- inhibition at 10 µM (RSK1 domain1; read-out: inhibition (10 μM)): 24%
- inhibition at 10 µM (STLK6; read-out: % inhibition (range)): 0%
- inhibition at 10 µM (STLK6; read-out: inhibition (10 μM)): -47.7%
- inhibition at 10 µM (CK1g2; read-out: % inhibition (range)): > 90%
- inhibition at 10 µM (CK1g2; read-out: inhibition (10 μM)): > 90%
- inhibition at 10 µM (p38a): 75 to 90%
- % inhibition (range) (MAPKAPK2, MAPKAPK3): 0.0%
- inhibition (10 μM) (MAPKAPK2, MAPKAPK3): 4.0%
- inhibition at 10 µM (CK1a; read-out: % inhibition (range)): 75 to 90%
- inhibition at 10 µM (CK1a; read-out: inhibition (10 μM)): 84.6%
- inhibition at 10 µM (RSK2 domain2; read-out: % inhibition (range)): 0%
- inhibition at 10 µM (RSK2 domain2; read-out: inhibition (10 μM)): -23.2%
- % inhibition (range) (KSR1, KSR2): 0.0%
- inhibition (10 μM) (KSR1, KSR2): −51.3%
- inhibition at 10 µM (Erk2; read-out: % inhibition (range)): 50 to 75%
- inhibition at 10 µM (Erk2; read-out: inhibition (10 μM)): 60.2%
- % inhibition (range) (AMPKa1, AMPKa2): 50-75%
- inhibition (10 μM) (AMPKa1, AMPKa2): 52.0%
- inhibition at 10 µM (LOK; read-out: % inhibition (range)): > 90%
- inhibition at 10 µM (LOK; read-out: inhibition (10 μM)): 98.5%
- inhibition at 10 µM (MAP2K3; read-out: % inhibition (range)): 0%
- inhibition at 10 µM (MAP2K3; read-out: inhibition (10 μM)): -34.2%
- inhibition at 10 µM (TYK2 domain2; read-out: % inhibition (range)): 0%
- inhibition at 10 µM (TYK2 domain2; read-out: inhibition (10 μM)): 29.9%
- inhibition at 10 µM (PKD2; read-out: % inhibition (range)): 35 to 50%
- inhibition at 10 µM (PKD2; read-out: inhibition (10 μM)): 46.2%
- % inhibition (range) (PI4KA, PI4KAP2): 0.0%
- inhibition (10 μM) (PI4KA, PI4KAP2): −5.5%
- inhibition at 10 µM (CSK; read-out: % inhibition (range)): 0%
- inhibition at 10 µM (CSK; read-out: inhibition (10 μM)): -4.5%
- inhibition at 10 µM (AKT1; read-out: % inhibition (range)): 0%
- inhibition at 10 µM (AKT1; read-out: inhibition (10 μM)): 32.8%
- inhibition at 10 µM (JAK3 domain2; read-out: % inhibition (range)): 0%
- inhibition at 10 µM (JAK3 domain2; read-out: inhibition (10 μM)): 2.6%
- inhibition at 10 µM (TBK1; read-out: % inhibition (range)): 0%
- inhibition at 10 µM (TBK1; read-out: inhibition (10 μM)): 23.7%
- inhibition at 10 µM (PIP5K3; read-out: % inhibition (range)): > 90%
- inhibition at 10 µM (PIP5K3; read-out: inhibition (10 μM)): 92%
- inhibition at 10 µM (MAP3K4; read-out: % inhibition (range)): 0%
- inhibition at 10 µM (MAP3K4; read-out: inhibition (10 μM)): -9.6%
- inhibition at 10 µM (PLK1; read-out: % inhibition (range)): 0%
- inhibition at 10 µM (PLK1; read-out: inhibition (10 μM)): 14.2%

Structure (SMILES): Nc1ncc(-c2cccc3ncsc23)cc1-c1ccc2c(c1)CCNC2=O [Compound I-13, 6-(2-amino-5-(benzo[d]thiazol-7-yl)pyridin-3-yl)-3,4-dihydroisoquinolin-1(2H)-one]
- inhibition at 10 µM (SMG1; read-out: % inhibition (range)): 50 to 75%
- inhibition at 10 µM (SMG1; read-out: inhibition (10 μM)): 61%
- inhibition at 10 µM (PKN1; read-out: % inhibition (range)): 0%
- inhibition at 10 µM (PKN1; read-out: inhibition (10 μM)): 19%
- inhibition at 10 µM (RSK1 domain1; read-out: % inhibition (range)): 0%
- inhibition at 10 µM (RSK1 domain1; read-out: inhibition (10 μM)): 3.3%
- inhibition at 10 µM (STLK6; read-out: % inhibition (range)): 0%
- inhibition at 10 µM (STLK6; read-out: inhibition (10 μM)): -10.8%
- inhibition at 10 µM (CK1g2; read-out: % inhibition (range)): > 90%
- inhibition at 10 µM (CK1g2; read-out: inhibition (10 μM)): > 90%
- inhibition at 10 µM (p38a): 0%
- % inhibition (range) (MAPKAPK2, MAPKAPK3): 0.0%
- inhibition (10 μM) (MAPKAPK2, MAPKAPK3): 2.5%
- inhibition at 10 µM (CK1a; read-out: % inhibition (range)): 0%
- inhibition at 10 µM (CK1a; read-out: inhibition (10 μM)): -17.4%
- inhibition at 10 µM (RSK2 domain2; read-out: % inhibition (range)): 0%
- inhibition at 10 µM (RSK2 domain2; read-out: inhibition (10 μM)): 3.8%
- % inhibition (range) (KSR1, KSR2): 0.0%
- inhibition (10 μM) (KSR1, KSR2): −6.2%
- inhibition at 10 µM (Erk2; read-out: % inhibition (range)): 50 to 75%
- inhibition at 10 µM (Erk2; read-out: inhibition (10 μM)): 74.6%
- % inhibition (range) (AMPKa1, AMPKa2): 0.0%
- inhibition (10 μM) (AMPKa1, AMPKa2): 1.8%
- inhibition at 10 µM (LOK; read-out: % inhibition (range)): 50 to 75%
- inhibition at 10 µM (LOK; read-out: inhibition (10 μM)): 61.5%
- inhibition at 10 µM (MAP2K3; read-out: % inhibition (range)): 0%
- inhibition at 10 µM (MAP2K3; read-out: inhibition (10 μM)): 1.1%
- inhibition at 10 µM (TYK2 domain2; read-out: % inhibition (range)): 0%
- inhibition at 10 µM (TYK2 domain2; read-out: inhibition (10 μM)): 0.6%
- inhibition at 10 µM (PKD2; read-out: % inhibition (range)): 50 to 75%
- inhibition at 10 µM (PKD2; read-out: inhibition (10 μM)): 52.1%
- % inhibition (range) (PI4KA, PI4KAP2): 0.0%
- inhibition (10 μM) (PI4KA, PI4KAP2): −16.1%
- inhibition at 10 µM (CSK; read-out: % inhibition (range)): 0%
- inhibition at 10 µM (CSK; read-out: inhibition (10 μM)): 4.7%
- inhibition at 10 µM (AKT1; read-out: % inhibition (range)): 0%
- inhibition at 10 µM (AKT1; read-out: inhibition (10 μM)): 26.4%
- inhibition at 10 µM (JAK3 domain2; read-out: % inhibition (range)): 0%
- inhibition at 10 µM (JAK3 domain2; read-out: inhibition (10 μM)): -12.8%
- inhibition at 10 µM (TBK1; read-out: % inhibition (range)): 0%
- inhibition at 10 µM (TBK1; read-out: inhibition (10 μM)): -23.1%
- inhibition at 10 µM (PIP5K3; read-out: % inhibition (range)): > 90%
- inhibition at 10 µM (PIP5K3; read-out: inhibition (10 μM)): 92.5%
- inhibition at 10 µM (MAP3K4; read-out: % inhibition (range)): 0%
- inhibition at 10 µM (MAP3K4; read-out: inhibition (10 μM)): 3%
- inhibition at 10 µM (PLK1; read-out: % inhibition (range)): 0%
- inhibition at 10 µM (PLK1; read-out: inhibition (10 μM)): 6.6%
